Measured values: article PMC6508677, “Identification of druggable small molecule antagonists of the Plasmodium falciparum hexose transporter PfHT and assessment of ligand access to the glucose permeation pathway via FLAG-mediated protein engineering” (PLoS ONE, 2019)
Several values for one entry are separate records, joined by “and”; a condition that tells them apart may be missing. Equal entries are not always repeated.

Molecular target: T1, PfHT (Plasmodium falciparum, UniProt Q7KWJ5)
T1 sequence (Q7KWJ5 1-504): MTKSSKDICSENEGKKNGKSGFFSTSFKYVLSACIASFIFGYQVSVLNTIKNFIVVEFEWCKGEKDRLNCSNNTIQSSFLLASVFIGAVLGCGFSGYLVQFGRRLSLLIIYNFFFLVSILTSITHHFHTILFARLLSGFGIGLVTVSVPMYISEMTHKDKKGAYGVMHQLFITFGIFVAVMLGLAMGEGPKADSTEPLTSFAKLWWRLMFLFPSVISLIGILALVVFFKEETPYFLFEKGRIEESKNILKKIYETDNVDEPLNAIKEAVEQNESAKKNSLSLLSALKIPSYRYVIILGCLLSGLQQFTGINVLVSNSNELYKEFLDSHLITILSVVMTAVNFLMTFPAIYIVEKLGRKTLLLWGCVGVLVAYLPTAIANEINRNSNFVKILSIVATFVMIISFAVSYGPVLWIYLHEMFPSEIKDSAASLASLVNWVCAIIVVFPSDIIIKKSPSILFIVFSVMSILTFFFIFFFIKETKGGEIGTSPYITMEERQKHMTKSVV
Assay: [3H]-D-fructose uptake by HEK293 cells overexpressing PfHT
Format: cell-based
Set-up: expressed in transfected cells; host or cells: HEK293 (HEK293-FLIP, native hGLUT1 knocked down by shRNA)
Text: Generation of HEK293 cells overexpressing PfHT and human GLUTs 1–4 were described elsewhere. Briefly, HEK293 cells were transfected with pcDNA3.1 FLII12Pglu-7006 (Addgene), containing the fluorescence resonance energy transfer (FRET) glucose sensor (HEK293-FLIP) and PfHT, human GLUT1 (hGLUT1), hGLUT2, hGLUT3, hGLUT4, hGLUT5 or hGLUT8 using Optifect (Life Technologies) according to manufacturer’s specifications. To increase retention of GLUT8 at the plasma membrane, the dileucine sorting signal E^7E^8XXXLL was modified to R^7R^8XXXLL as described in [17]. Stable transfectants were selected for G418 and hygromycin resistance to select for FRET sensor and hexose transporter, respectively. HEK293-FLIP cells were also used to generate cells stably transfected with FLAG-tagged PfHT (FTPfHT). FLAG tag ([…]) followed by a triple glycine linker and a tobacco etch virus (TEV) protease site (ENLYFQS) followed by a triple glycine linker was added to the N-terminus of PfHT via PCR [18] using Phusion Hot Start II High-Fidelity DNA Polymerase (Fisher Scientific). Single clones were selected by comparing their abilities to transport glucose as assayed via FRET and radiolabeled hexose uptake. In all cell lines, except for HEK293 cells overexpressing hGLUT1 and hGLUT5, native hGLUT1 was knocked down using shRNA as described elsewhere. Transcript levels of the individual GLUTs expressed in each cell line are as described in [13, 15] and in S1 Fig.
Glucose uptake by P. falciparum was performed essentially as described. P. falciparum strain 3D7 was cultured in 100 mm tissue culture dishes (Techno Plastic Products) in a 2% suspension of human erythrocytes and RPMI 1640 medium until reaching > 7.5% parasitemia. Cells were pelleted via centrifugation and resuspended in RPMI 1640 medium. To determine the uptake of radiolabeled glucose into the parasite, parasites were isolated from infected erythrocytes by permeablization with saponin (0.05 w/v), followed by centrifugation, aspiration of supernatant and washing of the pellet 3X with saline solution (135 mM NaCl, 2 mM KCl, 25 mM HEPES, 0.2 mM glucose and 1 mM MgCl2; pH 7.1) to remove cellular debris. WU-1 or DMSO vehicle were added to 100 μl parasites (resuspended in saline) 5 min prior to the addition of 100 μl [^14C]2-DOG (0.2- μCi/ml final concentration). 2-DG uptake was stopped after 2 min by layering the entire reaction over 300 μl of an oil mixture (5:4 mix of dibutyl phthalate / dinonyl phthalate) in Eppendorf tubes and centrifuged at 15,850 × g for 2 mins. The ratio of the estimated intracellular concentration of radiolabel relative to the extracellular concentration were calculated as described. Uptake of radiolabeled hexose into HEK293 cells was measured in glucose-free HBSS as described previously. Briefly, cells were plated at 400,000 cells/well overnight at 37°C in 24-well plates pre-treated with PEI. After 30-min incubation at 37°C in glucose-free HBSS in the presence of vehicle or increasing concentrations of compound, 2-DG uptake was measured in glucose-free HBSS for 4 min at 37°C. Cultures were washed in ice-cold 1X PBS and lysed in 0.1% Triton X-100 in 1X PBS. Radiolabeled hexose uptake was determined by liquid scintillation counting (Ultima Gold, Thermo Fisher) and normalized to total protein per well. Uptake data are plotted as percent uptake relative to vehicle-treated cells. Kinetic analyses were performed using the indicated concentrations of substrate and WU-1, with quenching of uptake after 1 min incubation. Incubation times had been previously determined as being in the linear range of time-dependent radiolabeled hexose uptake (2 min for 2-DG uptake into freed parasites; 2 and 4 min for D-Frc and 2-DG uptake HEK cell lines, respectively). Data were fit by least squares nonlinear regression analysis using GraphPad Prism 6.0 software.

Cc1ccc(S(=O)(=O)CCNC(=O)c2c(-c3c(Cl)cccc3Cl)noc2C)cc1 [WU-1, 3-(2,6-dichlorophenyl)-5-methyl-N-[2-(4-methylbenzenesulfonyl)ethyl]-1,2-oxazole-4-carboxamide]
IC50 (AVE IC50 (µM), PfHT, D-frc Uptake, average of Expt 1-3): 4.99 µM
remaining activity at 0.001 µM (HEK293, 2 min, read-out: D-frc Uptake AVE, PfHT, concentration 0.001 µM, Expt 1-3): 101%
remaining activity at 0.63 µM (HEK293, 2 min, read-out: D-frc Uptake AVE, PfHT, concentration 0.63 µM): 80.7%
remaining activity at 1.25 µM (HEK293, 2 min, read-out: D-frc Uptake AVE, PfHT, concentration 1.25 µM): 72.3%
remaining activity at 2.5 µM (HEK293, 2 min, read-out: D-frc Uptake AVE, PfHT, concentration 2.50 µM): 68.5%
remaining activity at 5 µM (HEK293, 2 min, read-out: D-frc Uptake AVE, PfHT, concentration 5.00 µM): 49.6%
remaining activity at 10 µM (HEK293, 2 min, read-out: D-frc Uptake AVE, PfHT, concentration 10.00 µM): 37.9%
remaining activity at 20 µM (HEK293, 2 min, read-out: D-frc Uptake AVE, PfHT, concentration 20.00 µM): 22.3%
remaining activity at 40 µM (HEK293, 2 min, read-out: D-frc Uptake AVE, PfHT, concentration 40.00 µM): 15.6%
remaining activity at 80 µM (HEK293, 2 min, read-out: D-frc Uptake AVE, PfHT, concentration 80.00 µM): 10.7%
remaining activity at 225 µM (HEK293, 2 min, read-out: D-frc Uptake AVE, PfHT, concentration 225.00 µM): 8.85%
remaining activity at 160 µM (HEK293, 2 min, read-out: D-frc Uptake AVE, PfHT, concentration […]): 7.62%
IC50 (IC50 (µM), PfHT, D-frc Uptake, single experiments Expt 1-3): 4.57 µM and 6.26 µM and 4.14 µM
IC50 (IC50, D-fructose (Frc) uptake, PfHT cell line): 5 ± 0.7 µM
Selectivity Index, Frc, PfHT line itself (reference value): 1.0
